Test results: US12662469B2 (SIRONAX LTD, priority 2018, dated 2026)

system: Cell Necrosis; experiment: Cell necrosis assay / cell viability assay (necrosis inhibitor activity); assay type: cell-based; settings: not given

Compound | EC50 [µM]
O=C(N1CC(Oc2ccc3ccccc3c2)C1)N1N=CC[C@H]1c1cc(F)cc(F)c1 [Compound 203, (S)(5-(3,5-difluorophenyl)-4,5-dihydro-1H-pyrazol-1-yl)(3-(naphthalen-2-yloxy)azetidin-1-yl)methanone] | 0.001 to 1

same assay, conditions: necrosis inhibitor activity; EC data for 14-191 extrapolated; read-out: EC50

Compound | EC50 [µM]
O=C(N1CCN(c2nccs2)CC1)N1N=CCC1c1ccccc1 (centres unmarked) [Compound 92, (5-phenyl-4,5-dihydro-1H-pyrazol-1-yl)(4-(thiazol-2-yl)piperazin-1-yl)methanone] | 0.001 to 1
O=C(N1CCC(Cc2ccccc2)CC1)N1N=CCC1c1ccccc1 (centres unmarked) [Compound 18, (4-benzylpiperidin-1-yl)(5-phenyl-4,5-dihydro-1H-pyrazol-1-yl)methanone] | 0.001 to 1
O=C(N1CC(Oc2nc3[nH]c(=O)ccc3s2)C1)N1N=CCC1c1cc(F)cc(F)c1 (centres unmarked) [Compound 179] | 0.001 to 1
CNC(=O)c1coc(OC2CN(C(=O)N3N=CCC3c3cc(F)cc(F)c3)C2)n1 (centres unmarked) [Compound 173] | 0.001 to 1
O=C(N1CC(Oc2c(F)cc(F)cc2F)C1)N1N=CCC1c1cc(F)cc(F)c1 (centres unmarked) [Compound 126, (5-(3,5-difluorophenyl)-4,5-dihydro-1H-pyrazol-1-yl)(3-(2,4,6-trifluorophenoxy)azetidin-1-yl)methanone] | 0.001 to 1
Cc1cnc(OC2CN(C(=O)N3N=CCC3c3cc(F)cc(F)c3)C2)s1 (centres unmarked) [Compound 176] | 0.001 to 1
O=C(N1CC(Oc2cccc(F)c2)C1)N1N=CCC1c1ccccc1 (centres unmarked) [Compound 61, (3-(3-fluorophenoxy)azetidin-1-yl)(5-phenyl-4,5-dihydro-1H-pyrazol-1-yl)methanone] | 0.001 to 1
O=C(N1CC(Cc2cccc(O)c2)C1)N1N=CCC1c1ccccc1 (centres unmarked) [Compound 44, (3-(3-hydroxybenzyl)azetidin-1-yl)(5-phenyl-4,5-dihydro-1H-pyrazol-1-yl)methanone] | 1 to 10
O=C(N1CCN(c2cccnn2)CC1)N1N=CCC1c1ccccc1 (centres unmarked) [Compound 89, (5-phenyl-4,5-dihydro-1H-pyrazol-1-yl)(4-(pyridazin-3-yl)piperazin-1-yl)methanone] | 1 to 10
O=C(N1CC(Oc2ccc(F)cc2F)C1)N1N=CCC1c1cccc(F)c1 (centres unmarked) [Compound 75, (3-(2,4-difluorophenoxy)azetidin-1-yl)(5-(3-fluorophenyl)-4,5-dihydro-1H-pyrazol-1-yl)methanone] | 0.001 to 1
CNC(=O)c1c(F)cc(OC2CN(C(=O)N3N=CCC3c3cc(F)cc(F)c3)C2)cc1F (centres unmarked) [Compound 160] | 0.001 to 1

same assay, conditions: necrosis inhibitor activity; compounds outside 14-191; read-out: EC50

Compound | EC50 [µM]
NC(=O)c1cc(OC2CN(C(=O)N3N=CC[C@H]3c3cc(F)cc(F)c3)C2)c(F)cc1F [Compound 239, (S)-5-((1-(5-(3,5-difluorophenyl)-4,5-dihydro-1H-pyrazole-1-carbonyl)azetidin-3-yl)oxy)-2,4-difluorobenzamide] | 0.001 to 1
O=C1COc2cc(F)c(OC3CN(C(=O)N4N=CC[C@H]4c4cccc(F)c4)C3)cc2N1 [Compound 200, (S)-7-fluoro-6-((1-(5-(3-fluorophenyl)-4,5-dihydro-1H-pyrazole-1-carbonyl)azetidin-3-yl)oxy)-2H-benzo[b][1,4]oxazin-3(4H)-one] | 0.001 to 1
O=C(NC1CCC1)N1N=CCC1c1ccccc1 (centres unmarked) [Compound 2, N-cyclobutyl-5-phenyl-4,5-dihydro-1H-pyrazole-1-carboxamide] | 0.001 to 1
Nc1cccc(OC2CN(C(=O)N3N=CCC3c3cc(F)cc(F)c3)C2)c1 (centres unmarked) [Compound 229, (3-(3-aminophenoxy)azetidin-1-yl)(5-(3,5-difluorophenyl)-4,5-dihydro-1H-pyrazol-1-yl)methanone] | 0.001 to 1
CC(C)C(=O)Nc1nc(N2CCN(C(=O)N3N=CC[C@H]3c3cc(F)cc(F)c3)CC2)ncc1F [Compound 292, (S)—N-(2-(4-(5-(3,5-difluorophenyl)-4,5-dihydro-1H-pyrazole-1-carbonyl)piperazin-1-yl)-5-fluoropyrimidin-4-yl)isobutyramide] | 0.001 to 1
N#Cc1ccc(C=C2CN(C(=O)N3N=CC[C@H]3c3cncc(F)c3)C2)c(F)n1 [Compound 324, (S)-6-fluoro-5-((1-(5-(5-fluoropyridin-3-yl)-4,5-dihydro-1H-pyrazole-1-carbonyl)azetidin-3-ylidene)methyl)picolinonitrile] | 0.001 to 1
N#Cc1cc(O[C@@H]2CCN(C(=O)N3N=CC[C@H]3c3cc(F)cc(F)c3)C2)ccc1F [Compound 342, 5-(((R)-1-((S)-5-(3,5-difluorophenyl)-4,5-dihydro-1H-pyrazole-1-carbonyl)pyrrolidin-3-yl)oxy)-2-fluorobenzonitrile] | 0.001 to 1
O=C(N1CC(Nc2ncc(F)cc2F)C1)N1N=CC[C@H]1c1cc(F)cc(F)c1 [Compound 254, (S)-(5-(3,5-difluorophenyl)-4,5-dihydro-1H-pyrazol-1-yl)(3-((3,5-difluoropyridin-2-yl)amino)azetidin-1-yl)methanone] | 0.001 to 1
O=C(N1CC(Oc2ccc3ccc(=O)[nH]c3c2)C1)N1N=CC[C@H]1c1cc(F)cc(F)c1 [Compound 205, (S)-7-((1-(5-(3,5-difluorophenyl)-4,5-dihydro-1H-pyrazole-1-carbonyl)azetidin-3-yl)oxy)quinolin-2(1H)-one] | 0.001 to 1
O=C(N1CC(=Cc2cc3[nH]nc(F)c3cc2F)C1)N1N=CC[C@H]1c1cncc(F)c1 [Compound 322, (S)-(3-((3,5-difluoro-1H-indazol-6-yl)methylene)azetidin-1-yl)(5-(5-fluoropyridin-3-yl)-4,5-dihydro-1H-pyrazol-1-yl)methanone] | 0.001 to 1
O=C(N1CC(=Cc2ccc(F)nc2)C1)N1N=CCC1c1cc(F)cc(F)c1 (centres unmarked) [Compound 305, (5-(3,5-difluorophenyl)-4,5-dihydro-1H-pyrazol-1-yl)(3-((6-fluoropyridin-3-yl)methylene)azetidin-1-yl)methanone] | 0.001 to 1
O=C(N1CC2(CCC2)C1)N1N=CCC1c1ccccc1 (centres unmarked) [Compound 3, (5-phenyl-4,5-dihydro-1H-pyrazol-1-yl)(2-azaspiro[3.3]heptan-2-yl)methanone] | 0.001 to 1
O=C(CC1CCCC1)Nc1nc(N2CCN(C(=O)N3N=CC[C@H]3c3cc(F)cc(F)c3)CC2)ncc1F [Compound 290] | 0.001 to 1
NC(=O)c1nc(OC2CN(C(=O)N3N=CC[C@H]3c3cc(F)cc(F)c3)C2)sc1Cl [Compound 274, (S)-5-chloro-2-((1-(5-(3,5-difluorophenyl)-4,5-dihydro-1H-pyrazole-1-carbonyl)azetidin-3-yl)oxy)thiazole-4-carboxamide] | 0.001 to 1
O=C(N1CC(Oc2cc3[nH]nc(F)c3cc2F)C1)N1N=CCC1c1cncc(F)c1 (centres unmarked) [Compound 378, (3-((3,5-difluoro-1H-indazol-6-yl)oxy)azetidin-1-yl)(5-(5-fluoropyridin-3-yl)-4,5-dihydro-1H-pyrazol-1-yl)methanone] | 0.001 to 1
O=C1COc2ccc(C=C3CN(C(=O)N4N=CC[C@H]4c4cc(F)cc(F)c4)C3)cc2N1 [Compound 278, 6-((1-(5-(3,5-difluorophenyl)-4,5-dihydro-1H-pyrazole-1-carbonyl)azetidin-3-ylidene)methyl)-2H-benzo[b][1,4]oxazin-3(4H)-one] | 0.001 to 1
CC1CN(C(=O)N2N=CCC2c2ccccc2)C1 (centres unmarked) [Compound 4, (3-methylazetidin-1-yl)(5-phenyl-4,5-dihydro-1H-pyrazol-1-yl)methanone] | 0.001 to 1
